Assay results: PubChem BioAssay AID208 (DTP/NCI, 2004)
“And” between values parts separate entries of the source, which are not always exact repeats. Identical values can stand only once. Results filed as inconclusive are left out.

System: HT29 intrarenal xenograft, nude mice, tumor weight change
Experiment: NCI In Vivo Anticancer Drug Screen. Data for tumor model HT29;CX-1 Human Adenocarcinoma (MER+) (intrarenal inoculation) in NU/NU BALB/C (nude) mice
Conditions: endpoint: mean tumor weight change, higher = larger tumour
Procedure: The antitumor activity of compounds was measured in mice bearing transplantable tumors. Survival or tumor size were measured and the results are expressed as the measurement made in the treated group (T) divided by the measurement made in the vehicle treated control group (C). The tumor model used in this assay is HT29;CX-1 Human Adenocarcinoma (MER+) (intrarenal inoculation) in NU/NU BALB/C (nude) mice

[1] = dose: 200.0 mg/kg/injection, schedule: Q04DX004 (sc), vehicle: Klucel (hydroxypropylcellulose) (HPC)
[2] = dose: 400.0 mg/kg/injection, schedule: Q04DX004 (sc), vehicle: Klucel (hydroxypropylcellulose) (HPC)
[3] = dose: 50.0 mg/kg/injection, schedule: Q01DX010 (sc), vehicle: saline
[4] = dose: 100.0 mg/kg/injection, schedule: Q01DX010 (sc), vehicle: saline
[5] = dose: 300.0 mg/kg/injection, schedule: Q04DX004 (sc), vehicle: saline with Tween-80
[6] = dose: 600.0 mg/kg/injection, schedule: Q04DX004 (sc), vehicle: saline with Tween-80
[7] = dose: 1200.0 mg/kg/injection, schedule: Q04DX004 (sc), vehicle: saline with Tween-80
[8] = dose: 2400.0 mg/kg/injection, schedule: Q04DX004 (sc), vehicle: saline with Tween-80
[9] = dose: 100.0 mg/kg/injection, schedule: Q04DX004 (sc), vehicle: saline
[10] = dose: 200.0 mg/kg/injection, schedule: Q04DX004 (sc), vehicle: saline

C[C@H]1C[C@@H]2[C@H]([C@@H](O)C[C@@]3(C)[C@H]2CC[C@]3(O)C(=O)CO)[C@@]2(C)C=CC(=O)C=C12
T/C [1]: 14 % of control
T/C [2]: 19 % of control
T/C (dose: 800.0 mg/kg/injection, schedule: Q04DX004 (sc), vehicle: Klucel (hydroxypropylcellulose) (HPC)): 29 % of control

OCCOCCN1CCN(CCCN2c3ccccc3Sc3ccc(C(F)(F)F)cc32)CC1
T/C (dose: 12.0 mg/kg/injection, schedule: Q01DX010 (sc), vehicle: saline): 23 % of control
T/C (dose: 24.0 mg/kg/injection, schedule: Q01DX010 (sc), vehicle: saline): 47 % of control
T/C (dose: 48.0 mg/kg/injection, schedule: Q01DX010 (sc), vehicle: saline): 42 % of control

CCCCNc1ccc2nnc(C)n2n1
T/C (dose: 150.0 mg/kg/injection, schedule: Q04DX004 (ip), vehicle: DMSO): 116 % of control
T/C (dose: 150.0 mg/kg/injection, schedule: Q04DX004 (ip), vehicle: sodium bicarbonate): 86 % of control

N[C@@H](Cc1ccc(N(CCCl)CCCl)cc1)C(=O)O
T/C (dose: 1.0 mg/kg/injection, schedule: Q01DX010 (sc), vehicle: saline): 28 % of control
T/C (dose: 2.0 mg/kg/injection, schedule: Q01DX010 (sc), vehicle: saline): 3 % of control

C=CS(=O)(=O)c1ccccc1
T/C [3]: 49 % of control
T/C [4]: 82 % of control

C/C(=N\NC(=S)N1CCN(c2ccccn2)CC1)c1ccccn1
T/C (dose: 50.0 mg/kg/injection, schedule: Q04DX004 (sc), vehicle: water): 158 % of control

O=c1[nH]c(=O)n([C@H]2CCCO2)cc1F
T/C (dose: 46.4 mg/kg/injection, schedule: Q01DX010 (ip), vehicle: Klucel (hydroxypropylcellulose) (HPC)): 41 % of control
T/C (dose: 69.8 mg/kg/injection, schedule: Q01DX010 (ip), vehicle: Klucel (hydroxypropylcellulose) (HPC)): 68 % of control
T/C (dose: 104.6 mg/kg/injection, schedule: Q04DX004 (ip), vehicle: Klucel (hydroxypropylcellulose) (HPC)): 61 % of control
T/C (dose: 157.4 mg/kg/injection, schedule: Q04DX004 (ip), vehicle: Klucel (hydroxypropylcellulose) (HPC)): 40 % of control
T/C (dose: 157.8 mg/kg/injection, schedule: Q01DX010 (ip), vehicle: Klucel (hydroxypropylcellulose) (HPC)): 31 % of control
T/C (dose: 236.7 mg/kg/injection, schedule: Q04DX004 (ip), vehicle: Klucel (hydroxypropylcellulose) (HPC)): 53 % of control

CN(C)CCOc1ccc2c(c1)C/C(=C/c1ncc([N+](=O)[O-])n1C)C2=O
T/C [5]: 89 % of control
T/C [6]: 33 % of control
T/C [7]: 69 % of control
T/C [8]: 65 % of control

COc1cc(C(C)(C)C)cc(OC)c1C(O)(c1c(OC)cc(C(C)(C)C)cc1OC)c1c(OC)cc(C(C)(C)C)cc1OC
T/C (dose: 50.0 mg/kg/injection, schedule: Q04DX004 (sc), vehicle: saline with Tween-80): 51 % of control
T/C (dose: 100.0 mg/kg/injection, schedule: Q04DX004 (sc), vehicle: saline with Tween-80): 79 % of control
T/C (dose: 200.0 mg/kg/injection, schedule: Q04DX004 (sc), vehicle: saline with Tween-80): 63 % of control
T/C (dose: 400.0 mg/kg/injection, schedule: Q04DX004 (sc), vehicle: saline with Tween-80): 68 % of control
T/C [6]: 102 % of control
T/C [7]: 80 % of control
T/C [8]: 61 % of control

O=P1(N(CCCl)CCCl)NCCCO1 (stereo unspecified)
T/C (dose: 60.0 mg/kg/injection, schedule: Q04DX004 (ip), vehicle: saline): 62 % of control and 77 % of control and 83 % of control
T/C [9]: 19 % of control and 21 % of control

O.O.[NH-]C1CCCCC1[NH-].[Pt+2] (stereo unspecified)
T/C (dose: 5.0 mg/kg/injection, schedule: Q01DX010 (sc), vehicle: dextrose): 98 % of control
T/C (dose: 10.0 mg/kg/injection, schedule: Q01DX010 (sc), vehicle: dextrose): 75 % of control
T/C (dose: 20.0 mg/kg/injection, schedule: Q01DX010 (sc), vehicle: dextrose): 34 % of control
T/C (dose: 40.0 mg/kg/injection, schedule: Q01DX010 (sc), vehicle: dextrose): 19 % of control

Cc1ccc(S(=O)(=O)N/N=C/C(Br)=C(/Br)C(=O)O)cc1
T/C (dose: 1.25 mg/kg/injection, schedule: Q04DX004 (sc), vehicle: saline): 103 % of control
T/C (dose: 2.5 mg/kg/injection, schedule: Q04DX004 (sc), vehicle: saline): 78 % of control
T/C (dose: 5.0 mg/kg/injection, schedule: Q04DX004 (sc), vehicle: saline): 105 % of control

CC[C@](O)(C(=O)O)c1cc2n(c(=O)c1CO)Cc1cc3ccccc3nc1-2
T/C (dose: 31.25 mg/kg/injection, schedule: Q04DX004 (sc), vehicle: saline): 39 % of control

Cc1nnc2ncccn12
T/C [9]: 73 % of control and 84 % of control
T/C [10]: 69 % of control and 84 % of control
T/C (dose: 400.0 mg/kg/injection, schedule: Q04DX004 (sc), vehicle: saline): 72 % of control and 76 % of control

CN(CO)c1nc(N(C)CO)nc(N(C)CO)n1
T/C (dose: 6.25 mg/kg/injection, schedule: Q01DX010 (sc), vehicle: saline): 100 % of control
T/C (dose: 25.0 mg/kg/injection, schedule: Q01DX010 (sc), vehicle: saline): 92 % of control
T/C [4]: 6 % of control

COC1=C(OC)C(=O)C(SC/C=C(\C)CCCC(C)CCCC(C)CCCC(C)C)=CC1=O (stereo unspecified)
T/C (dose: 300.0 mg/kg/injection, schedule: Q04DX004 (ip), vehicle: saline with Tween-80): 97 % of control
T/C (dose: 600.0 mg/kg/injection, schedule: Q04DX004 (ip), vehicle: saline with Tween-80): 83 % of control
T/C (dose: 1200.0 mg/kg/injection, schedule: Q04DX004 (ip), vehicle: saline with Tween-80): 88 % of control

N#CC(C#N)=C/C=C/c1cccc([N+](=O)[O-])c1
T/C (dose: 25.0 mg/kg/injection, schedule: Q01DX010 (sc), vehicle: Klucel (hydroxypropylcellulose) (HPC)): 81 % of control
T/C (dose: 50.0 mg/kg/injection, schedule: Q01DX010 (sc), vehicle: Klucel (hydroxypropylcellulose) (HPC)): 90 % of control
T/C (dose: 100.0 mg/kg/injection, schedule: Q01DX010 (sc), vehicle: Klucel (hydroxypropylcellulose) (HPC)): 76 % of control
T/C (dose: 200.0 mg/kg/injection, schedule: Q01DX010 (sc), vehicle: Klucel (hydroxypropylcellulose) (HPC)): 63 % of control

COc1cc2c3c(cccc3c1)C(=O)N(CCN(C)C)C2=O
T/C (dose: 37.5 mg/kg/injection, schedule: Q04DX004 (sc), vehicle: saline with Tween-80): 72 % of control
T/C (dose: 75.0 mg/kg/injection, schedule: Q04DX004 (sc), vehicle: saline with Tween-80): 98 % of control
T/C (dose: 150.0 mg/kg/injection, schedule: Q04DX004 (sc), vehicle: saline with Tween-80): 74 % of control
T/C [5]: 105 % of control

Cc1c(-c2ccc(-c3ccccc3F)cc2)nc2ccc(F)cc2c1C(=O)O
T/C (dose: 12.5 mg/kg/injection, schedule: Q01DX010 (ip), vehicle: water): 59 % of control
T/C (dose: 53.3 mg/kg/injection, schedule: Q01DX009 (ip), vehicle: water): 30 % of control

Cc1cc(N(CC(C)Br)CC(C)Br)ccc1N=Nc1ccccc1C(=O)O (stereo unspecified)
T/C (dose: 3.13 mg/kg/injection, schedule: Q01DX010 (sc), vehicle: saline with Tween-80): 65 % of control
T/C (dose: 6.25 mg/kg/injection, schedule: Q01DX010 (sc), vehicle: saline with Tween-80): 55 % of control
T/C (dose: 12.5 mg/kg/injection, schedule: Q01DX010 (sc), vehicle: saline with Tween-80): 57 % of control

O=C(C/C(=N\C(=S)Nc1cc(C(F)(F)F)ccc1Cl)NO)N1CCCC1
T/C (dose: 600.0 mg/kg/injection, schedule: Q04DX003 (sc), vehicle: saline with Tween-80): 114 % of control
T/C (dose: 1200.0 mg/kg/injection, schedule: Q04DX003 (sc), vehicle: saline with Tween-80): 88 % of control

O=CC(NC(=O)N(CCCl)N=O)C(O)C(O)C(O)CO (stereo unspecified)
T/C (dose: 1.5 mg/kg/injection, schedule: Q01DX010 (sc), vehicle: Klucel (hydroxypropylcellulose) (HPC)): 45 % of control
T/C (dose: 3.0 mg/kg/injection, schedule: Q01DX010 (sc), vehicle: Klucel (hydroxypropylcellulose) (HPC)): 42 % of control
T/C (dose: 6.0 mg/kg/injection, schedule: Q01DX010 (sc), vehicle: Klucel (hydroxypropylcellulose) (HPC)): 35 % of control

Nc1ccn([C@@H](C=O)O[C@@H](C=O)CO)c(=O)n1
T/C (dose: 50.0 mg/kg/injection, schedule: Q04DX004 (sc), vehicle: saline): 117 % of control
T/C [9]: 71 % of control
T/C [10]: 113 % of control

O=C(O)C1(NO)CCCCC1
T/C [1]: 168 % of control
T/C [2]: 122 % of control
T/C (dose: 1600.0 mg/kg/injection, schedule: Q04DX004 (sc), vehicle: Klucel (hydroxypropylcellulose) (HPC)): 92 % of control

C[N+](C)(C)c1ncnc2nc[nH]c12
T/C [3]: 111 % of control
T/C [4]: 83 % of control
T/C (dose: 200.0 mg/kg/injection, schedule: Q01DX010 (sc), vehicle: saline): 29 % of control
